Reference: PubChem BioAssay AID1745844 (Carcinogenic Potency Database (CPDB), 2022)
Calls of active or inactive are those of the source. No rule for the calls is given here.

Tested on: rodent lifetime carcinogenesis bioassay, tumor incidence TD50
Assay: carcinogenic potency in animals, long-term in vivo studies, CPDB compilation (AID 1745844)
Settings: rat, strain F344/DuCrj, in drinking water; for TD50: dosed 104 weeks, study length 108 weeks

CC(=O)OC/C=C(C)/C=C/C=C(C)/C=C/C1=C(C)CCCC1(C)C
TD50 (females, site: adrenal medulla, lesion: pheochromocytoma, malignant): 7340 mg/kg/day | TD50 (females, site: adrenal medulla, lesion: pheochromocytoma): 227 mg/kg/day | TD50 (females, site: liver, lesion: neoplastic nodule): 7340 mg/kg/day | TD50 (males, site: adrenal medulla, lesion: pheochromocytoma, malignant): 552 mg/kg/day | TD50 (males, site: adrenal medulla, lesion: pheochromocytoma): 86.4 mg/kg/day | carcinogen call (males, site: forestomach, lesion: neoplasm, dosed 52 weeks, study length 52 weeks): negative (inactive) | TD50 (males, site: liver, lesion: cholangioma): 6470 mg/kg/day | TD50 (males, site: liver, lesion: neoplastic nodule): 2060 mg/kg/day | TD50 (males, site: liver, lesion: several types, types named in the paper): 3670 mg/kg/day | TD50 (males, site: spleen, lesion: mononuclear-cell leukemia): 548 mg/kg/day | TD50 (males, site: thyroid gland, lesion: c-cell adenoma): 671 mg/kg/day | TD50 (males, site: thyroid gland, lesion: several types, types named in the paper): 976 mg/kg/day
